Reference: publication PMC5004205, “Spiro[pyrrolidine-3, 3´-oxindole] as potent anti-breast cancer compounds: Their design, synthesis, biological evaluation and cellular target identification” (Scientific Reports, 2016)
Values after ≈ are worked out from the molar mass of the structure shown. Values joined by “and” are separate entries in the source; they are usually repeats but may differ in a detail not shown here. Identical values can stand only once. “Also recorded” adds a separate entry of the source.

Assays:
MCF-7 cells [1] = conditions: cited from earlier work
[2] = tested on: MCF-7 breast cancer cells; assay: MTT colorimetric cell viability assay, MCF-7; type: cell-based; conditions: for inhibition at 50 µM / EC50: Homo sapiens; for inhibition at 50 µM: MCF7, 48 hours, MTT, triplicates, read-out: Percentage inhibition MCF-7; for CTRL-TST/CTRL*100 (inhibition) MCF-7: EC50 plate; for EC50: MCF7, MTT, mean of three experiments
Method: MCF-7 cells were maintained as monolayer in 25 cm^2 culture flasks (T-25) at 37 °C in DMEM medium (GIBCO, St. Louis, USA) supplemented with high glucose, L-glutamine, pyridoxine hydrochloride, 110 mg/L sodium pyruvate, 3.7 g/L NaHCO3 and antibiotics (Penicillin-10,000 units/mL, Streptomycin −10,000 μg/mL, GIBCO, USA). Growth medium (pH 7.4) was prepared by adding 5% heat inactivated FBS (Fetal Bovine Serum, GIBCO, USA) and stored at 4 °C. The medium was changed 10–18 hrs prior to experiment, and cells were confluent at the time of experimentation. Cells were dislodged from flasks by gentle trypsinization containing 0.25% Trypsin. MCF-7 cells were regularly sub-cultured thrice a week in a seeding density of 40,000–50,000 cells/cm^2area. Cell confluency = 70%
The MTT colorimetric viability assay was performed to evaluate the anticancer effect of compounds. 30,000 cells/100 μl of media were seeded per well and allowed to stretch and adhere overnight at 37 °C. Following day media was removed and 100 μl fresh media was added to the grown cells. […] There was one positive and one negative control along with 13 compounds. The results were measured all in triplicate in 45 wells of 96 well plate at each time point. Cytotoxic effect was evaluated using ability of live cells to cleave MTT ((3-[4, 5- dimethylthiazol-2-yl]-2, 5-diphenyl tetrazolium bromide)) (Sigma-Aldrich, St Louis, MO, USA), into formazan crystals. Post 48 hours of treatment, 10 μl of MTT (5 mg/ml in PBS) was added to the cells and incubated for 4 hours in dark at 37 °C. The violet colored crystals formed were then dissolved in 100 μl DMSO solvent (Dimethyl Sulfoxide, Sigma-Aldrich, St. Louis, MO, USA). The colorimetric assay was read by a MultiMode Plate Reader (Bio-Rad) at 595 nm. Percentage of Inhibition of drug was calculated by following formula:
O.D1 O.D2 O.D3 AVG CTRL-TST CTRL-TST/CTRL*100 stdev

COS-7 cells = assay: MTT colorimetric cell viability assay, COS-7; type: cell-based; conditions: for inhibition at 50 µM: Chlorocebus aethiops, COS-7, MTT, triplicates, read-out: Percentage inhibition COS-7
Method: (§1) The MTT colorimetric viability assay was performed to evaluate the anticancer effect of compounds. 30,000 cells/100 μl of media were seeded per well and allowed to stretch and adhere overnight at 37 °C. Following day media was removed and 100 μl fresh media was added to the grown cells. Adhered cells were then treated with the compounds 5a-m dissolved in DMSO in triplicates at a standard concentration of 50 μM for 48 hours. There was one positive and one negative control along with 13 compounds. The results were measured all in triplicate in 45 wells of 96 well plate at each time point. Cytotoxic effect was evaluated using ability of live cells to cleave MTT ((3-[4, 5- dimethylthiazol-2-yl]-2, 5-diphenyl tetrazolium bromide)) (Sigma-Aldrich, St Louis, MO, USA), into formazan crystals. Post 48 hours of treatment, 10 μl of MTT (5 mg/ml in PBS) was added to the cells and incubated for 4 hours in dark at 37 °C. The violet colored crystals formed were then dissolved in 100 μl DMSO solvent (Dimethyl Sulfoxide, Sigma-Aldrich, St. Louis, MO, USA). The colorimetric assay was read by a MultiMode Plate Reader (Bio-Rad) at 595 nm. Percentage of Inhibition of drug was calculated by following formula: […]

MCF10A cells = assay: MTT cytotoxicity assay, MCF10A; type: cell-based; conditions: for CTRL-TST/CTRL*100 MCF10A cytotoxicity / Percentage inhibition MCF10A: 48 hours; for CTRL-TST/CTRL*100 MCF10A cytotoxicity: 595 nm; for Percentage inhibition MCF10A: MTT
Method: MCF10A was obtained from American Tissue Type Culture Collection (ATCC, Bethesda, MD). All cells were grown in a humidified atmosphere at 37 °C, with 5% CO2 in air.
as §1
Cytotoxicity assay with MCF 10A
Experiment :MCF10A cytotoxicity assay 48 hours
Raw Data{Wavelength:595.0}
O.D1 O.D2 O.D3 AVG CTRL-TEST CTRL-TST/CTRL*100
(1 picture or pasted object on this page, not shown here)

MCF-7 cells [3] = assay: Cell migration (scratch) assay; type: cell-based; conditions: 24 hours, compared to untreated cells
Method: MCF-7 cells were grown to confluence in six-well tissue culture plastic dishes to a density of ∼0.2 million cells/well. After 24 hrs of seeding, cells were treated with chemical compounds. The medium was removed and the cells were scratched by 200 μL pipette micro tip through the center of the plate. The cultures were washed to remove debris and re-cultured with DMEM containing 10% FBS for cell migration. The cells were imaged at 24 hrs and the migrated distance was measured. Migration rate was calculated by counting five to seven fields per image and the results presented as the average of three independent experiments performed over multiple days.

MCF-7 cells [4] = assay: DNA fragmentation (DNA-ladder) assay; type: cell-based; conditions: MCF-7, gel electrophoresis
Method: The DMSO (dimethyl sulphoxide)–SDS (sodium dodecyl sulphate)–TE (Tris-EDTA) method: 2 million MCF-7cells were taken as starting material for DNA isolation. Cells were dislodged with Trypsin-EDTA and washed with 1 X PBS. DMSO was added directly to the cell pellet (100 μl) and mixed well by pipetting. TE buffer (pH 7.4) with 2% SDS was added into the mixture with same volume, followed by pipetting. The solution was centrifuged at 3000 rpm at 4 °C and 30 μL of the supernatant was loaded on agarose gel to check the effect of drugs on DNA molecule.

MCF-7 cells [5] = assay: Annexin V/propidium iodide FACS assay; type: cell-based
Method: The assay is based on the ability of the protein annexin V to bind to phosphatidylserine (PS) exposed on the outer membrane leaflet in apoptotic cells (PS also appears on the necrotic cell surface). The annexin V assay was performed following the manufacturer’s instructions (Annexin V-FITC kit,Alexa Fluor). Briefly, the cells were washed with PBS and suspended in pre-diluted binding buffer. The cell density was adjusted to 2 million and 195 μl of cell suspension were mixed with 5 μl Annexin V-FITC and incubated for 10 min in the dark at room temperature. The cells were washed with binding buffer, re-suspended in 195 μl binding buffer, counterstained with 10 μl of the 20 μg/ml propidium iodide stock (final concentration 1 μg/ml) and the data were acquired by BD FACS diva 7.0 at 6 h, 12 h and 24 h.

PKCα kinase = tested on: PKCα kinase; design: method as in Shantani UPT Application Notes; conditions: at 1μM; ref Shantani UPT Application Notes; cited from earlier work

For CS[C@@]1(C)C(=O)N(C)[C@@](Cc2c[nH]c3ccccc23)(SC)C(=O)N1C [Chaetocochins G], the “IC50 in MCF-7” value (MCF-7 cells [1]) is listed as 16.9 µg/mL (≈ 44.8 µM) and the “Mode of cell death” value (MCF-7 cells [1]) is listed as “Induces Apoptosis”.

Molecule Cc1ccc(C2NCCC23C(=O)Nc2ccccc23)cc1 (centres unmarked) [Compound 5a] has an inhibition at 50 µM [2] of 35.06 ± 0.09% and an inhibition at 50 µM (COS-7 cells) of 11.73 ± 0.09%.

O=C1Nc2ccccc2C12CCNC2c1cccc(C(F)(F)F)c1 (centres unmarked) [Compound 5b] showed an inhibition at 50 µM [2] of 33.1 ± 0.12% and an inhibition at 50 µM (COS-7 cells) of 20.73 ± 0.11%.

For Cc1cc(C)cc(C2NCCC23C(=O)Nc2ccccc23)c1 (centres unmarked) [Compound 5c], the inhibition at 50 µM [2] was 34.46 ± 0.11% and the inhibition at 50 µM (COS-7 cells) was 28.8 ± 0.13%.

O=C1Nc2ccccc2C12CCNC2c1c(F)cccc1F (centres unmarked) [Compound 5d] gave an inhibition at 50 µM [2] of 44.25 ± 0.17% and an inhibition at 50 µM (COS-7 cells) of 9.22 ± 0.12%.

For O=C1Nc2ccccc2C12CCNC2c1cccc(F)c1 (centres unmarked) [Compound 5e], the “CTRL-TST/CTRL*100 (inhibition) MCF-7” value ([2]; concentration row 10) was -4.013, the “CTRL-TST/CTRL*100 (inhibition) MCF-7” value ([2]; concentration row 20) was 8.388 and the “CTRL-TST/CTRL*100 (inhibition) MCF-7” value ([2]; concentration row 30) was 23.78. For the same molecule, the “CTRL-TST/CTRL*100 (inhibition) MCF-7” value ([2]; concentration row 40) was 31.55, the “CTRL-TST/CTRL*100 (inhibition) MCF-7” value ([2]; concentration row 50) was 52.5 and the EC50 [2] was 6 µM. The inhibition at 50 µM [2] was 54.67 ± 0.08%, the “Inhibition of proliferation of healthy COS-7 cells” value (COS-7 cells) was “did not inhibit the proliferation” and the inhibition at 50 µM (COS-7 cells) was 3.56 ± 0.19%. The “Effect on proliferation of healthy MCF10A cells” value (MCF10A cells) was “did not inhibit the proliferation; also recorded: little or no effect”, the “CTRL-TST/CTRL*100 MCF10A cytotoxicity” value (MCF10A cells) was 4.48 and the “Percentage inhibition MCF10A” value (MCF10A cells) was 4.48%.

COc1cccc(C2NCCC23C(=O)Nc2ccccc23)c1 (centres unmarked) [Compound 5f] gave an inhibition at 50 µM [2] of 38.48 ± 0.18% and an inhibition at 50 µM (COS-7 cells) of 34.87 ± 0.17%.

COc1ccc(C2NCCC23C(=O)Nc2ccccc23)cc1OC (centres unmarked) [Compound 5g] showed an inhibition at 50 µM [2] of 25.29 ± 0.24% and an inhibition at 50 µM (COS-7 cells) of 2.39 ± 0.23%.

With COc1ccc(C2NCCC23C(=O)Nc2ccccc23)cc1 (centres unmarked) [Compound 5h] the inhibition at 50 µM [2] was 50.62 ± 0.24% and the inhibition at 50 µM (COS-7 cells) was 25.2 ± 0.06%.

With COc1cc(OC)c(C2NCCC23C(=O)Nc2ccccc23)cc1OC (centres unmarked) [Compound 5i] the “CTRL-TST/CTRL*100 (inhibition) MCF-7” value ([2]; concentration row 10) was 7.139, the “CTRL-TST/CTRL*100 (inhibition) MCF-7” value ([2]; concentration row 20) was 20.22 and the “CTRL-TST/CTRL*100 (inhibition) MCF-7” value ([2]; concentration row 30) was 43.4. For the same molecule, the “CTRL-TST/CTRL*100 (inhibition) MCF-7” value ([2]; concentration row 40) was 50.54, the “CTRL-TST/CTRL*100 (inhibition) MCF-7” value ([2]; concentration row 50) was 66.16 and the EC50 [2] was 4.01 µM. For the same molecule, the inhibition at 50 µM [2] was 53.66 ± 0.06%, the “Inhibition of proliferation of healthy COS-7 cells” value (COS-7 cells) was “did not inhibit the proliferation” and the inhibition at 50 µM (COS-7 cells) was 15.6 ± 0.09%. For the same molecule, the “Effect on proliferation of healthy MCF10A cells” value (MCF10A cells) was “did not inhibit the proliferation; also recorded: little or no effect”, the “CTRL-TST/CTRL*100 MCF10A cytotoxicity” value (MCF10A cells) was 0.8 and the “Percentage inhibition MCF10A” value (MCF10A cells) was 0.8%. For the same molecule, the “Inhibition of cell migration of MCF-7 cells” value (MCF-7 cells [3]) was “inhibit cell migration”, the “DNA fragmentation pattern / mode of cell death” value (MCF-7 cells [4]) was “smearing of DNA fragments” and the “Mode of cell death by Annexin-PI FACS” value (MCF-7 cells [5]) was “necrosis was also confirmed”.

With COc1ccc(C2NCCC23C(=O)Nc2ccccc23)c(F)c1 (centres unmarked) [Compound 5j] the inhibition at 50 µM [2] was 38.72 ± 0.15% and the inhibition at 50 µM (COS-7 cells) was 7.52 ± 0.15%.

Molecule COc1ccc(C2NCCC23C(=O)Nc2ccccc23)cc1C (centres unmarked) [Compound 5k] has an inhibition at 50 µM [2] of 44.4 ± 0.09% and an inhibition at 50 µM (COS-7 cells) of 7.14 ± 0.19%.

Molecule O=C1Nc2ccccc2C12CCNC2c1cc(C(F)(F)F)ccc1C(F)(F)F (centres unmarked) [Compound 5m] has an inhibition at 50 µM [2] of 31.81 ± 0.11% and an inhibition at 50 µM (COS-7 cells) of -0.51 ± 0.29%.

For COc1cc([C@@H]2c3cc4c(cc3[C@@H](O[C@@H]3O[C@@H]5CO[C@@H](C)O[C@H]5[C@H](O)[C@H]3O)[C@H]3COC(=O)[C@H]23)OCO4)cc(OC)c1O [Etoposide, reference compound], the inhibition at 50 µM [2] was 71.95 ± 0.11%, the “CTRL-TST/CTRL*100 (inhibition) MCF-7, positive control” value ([2]; eto control row of the EC50 plates of 5l, 5e, 5i, concentration not given, listed as eto) was 70.96 and 73.49 and 73.1582 and the inhibition at 50 µM (COS-7 cells) was 77.65 ± 0.1%.

For Bisindolylmaleimide-III [Bis-III], the “Inhibition of PKCα kinase activity” value (PKCα kinase) is given as 93%.
